In ChEMBL document CHEMBL2010651, “Discovery and hit-to-lead optimization of pyrrolopyrimidines as potent, state-dependent Na(v)1.7 antagonists” (Bioorg Med Chem Lett, 2012):
In brackets after ≈: the same amount, converted by molar mass.

Test: Lipophilicity, log D of the compound at pH 7.4
Assay type: physicochemical
Conditions: buffer

Row | SMILES | logD
1 | Cc1c(C)n(Cc2ccccc2)c2ncnc(OC3CCN(Cc4cscn4)CC3)c12 | 4.35
2 | Cc1cn(Cc2ccccc2)c2ncnc(OC3CCN(Cc4cscn4)CC3)c12 | 3.89
3 | Fc1cn(Cc2ccccc2)c2ncnc(OC3CCN(Cc4cscn4)CC3)c12 | 3.49
4 | Clc1cn(Cc2ccccc2)c2ncnc(OC3CCN(Cc4cscn4)CC3)c12 | 4.03
5 | c1ccc(Cn2ccc3c(OC4CCN(Cc5cscn5)CC4)ncnc32)cc1 | 3.44
6 | Cc1nc(OC2CCN(Cc3cscn3)CC2)c2ccn(Cc3ccccc3)c2n1 | 4.15
7 | FC(F)(F)c1nc(OC2CCN(Cc3cscn3)CC2)c2ccn(Cc3ccccc3)c2n1 | 5.1
8 | c1ccc(Cn2ncc3c(OC4CCN(Cc5cscn5)CC4)ncnc32)cc1 | 2.18
9 | c1ccc(Cn2cnc3c(OC4CCN(Cc5cscn5)CC4)ncnc32)cc1 | 2.28
10 | CC1(C)CN(Cc2ccccc2)c2ncnc(OC3CCN(Cc4cscn4)CC3)c21 | 3.94
11 | CC1(C)C(=O)N(Cc2ccccc2)c2ncnc(OC3CCN(Cc4cscn4)CC3)c21 | 2.39
12 | c1ccc(-n2ccc3c(OC4CCN(Cc5cscn5)CC4)ncnc32)cc1 | 3.3
13 | c1ccc(CCn2ccc3c(OC4CCN(Cc5cscn5)CC4)ncnc32)cc1 | 3.87
14 | c1nc(OC2CCN(Cc3cscn3)CC2)c2ccn(CC3CCCCC3)c2n1 | 4.32
15 | Fc1ccccc1Cn1ccc2c(OC3CCN(Cc4cscn4)CC3)ncnc21 | 3.49
16 | Fc1cccc(Cn2ccc3c(OC4CCN(Cc5cscn5)CC4)ncnc32)c1 | 3.49
17 | Fc1ccc(Cn2ccc3c(OC4CCN(Cc5cscn5)CC4)ncnc32)cc1 | 3.49
18 | Clc1cccc(Cn2ccc3c(OC4CCN(Cc5cscn5)CC4)ncnc32)c1 | 4.03
19 | Clc1ccc(Cn2ccc3c(OC4CCN(Cc5cscn5)CC4)ncnc32)cc1 | 4.03

Row | SMILES | logD
20 | Cc1ccccc1Cn1ccc2c(OC3CCN(Cc4cscn4)CC3)ncnc21 | 3.9
21 | Cc1cccc(Cn2ccc3c(OC4CCN(Cc5cscn5)CC4)ncnc32)c1 | 3.9
22 | Cc1ccc(Cn2ccc3c(OC4CCN(Cc5cscn5)CC4)ncnc32)cc1 | 3.9
23 | FC(F)(F)c1ccccc1Cn1ccc2c(OC3CCN(Cc4cscn4)CC3)ncnc21 | 4.01
24 | FC(F)(F)c1cccc(Cn2ccc3c(OC4CCN(Cc5cscn5)CC4)ncnc32)c1 | 4.01
25 | FC(F)(F)c1ccc(Cn2ccc3c(OC4CCN(Cc5cscn5)CC4)ncnc32)cc1 | 4.01
26 | Fc1cccc(Cn2ccc3c(OC4CCN(Cc5cscn5)CC4)ncnc32)c1F | 3.45
27 | Fc1c(Cl)cccc1Cn1ccc2c(OC3CCN(Cc4cscn4)CC3)ncnc21 | 4.19
28 | Fc1c(Cn2ccc3c(OC4CCN(Cc5cscn5)CC4)ncnc32)cccc1C(F)(F)F | 4.08
29 | Fc1cccc(F)c1Cn1ccc2c(OC3CCN(Cc4cscn4)CC3)ncnc21 | 3.58
30 | c1ccc(Cn2ccc3c(OC4CCNCC4)ncnc32)cc1 | 1.24
31 | c1ccc(Cn2ccc3c(OC4CCN(c5ccccc5)CC4)ncnc32)cc1 | 5.31
32 | c1ccc(CN2CCC(Oc3ncnc4c3ccn4Cc3ccccc3)CC2)cc1 | 4.96
33 | O=C(c1cscn1)N1CCC(Oc2ncnc3c2ccn3Cc2ccccc2)CC1 | 3.07
34 | c1ccc(Cn2ccc3c(OC4CCN(Cc5cocn5)CC4)ncnc32)cc1 | 3.1
35 | c1ccc(Cn2ccc3c(OC4CCN(Cc5c[nH]cn5)CC4)ncnc32)cc1 | 2.35
36 | c1ccc(Cn2ccc3c(OC4CCN(Cc5ccn[nH]5)CC4)ncnc32)cc1 | 3.02
37 | c1ccc(Cn2ccc3c(OC4CCN(Cc5cn[nH]c5)CC4)ncnc32)cc1 | 3.16
38 | Cn1cc(CN2CCC(Oc3ncnc4c3ccn4Cc3ccccc3)CC2)cn1 | 3.01

Row | SMILES | logD
39 | Cn1ccnc1CN1CCC(Oc2ncnc3c2ccn3Cc2ccccc2)CC1 | 2.93
40 | Cc1nc(CN2CCC(Oc3ncnc4c3ccn4Cc3ccccc3)CC2)cs1 | 4.1
41 | c1ccc(Cn2ccc3c(OC4CCN(Cc5nccs5)CC4)ncnc32)cc1 | 4.81
42 | c1ccc(Cn2ccc3c(OC4CCN(Cc5ccccn5)CC4)ncnc32)cc1 | 3.7
43 | c1ccc(Cn2ccc3c(OC4CCN(Cc5cccnc5)CC4)ncnc32)cc1 | 3.67
44 | c1ccc(Cn2ccc3c(OC4CCN(Cc5ccncc5)CC4)ncnc32)cc1 | 3.69
45 | Cc1cccc(CN2CCC(Oc3ncnc4c3ccn4Cc3ccccc3)CC2)n1 | 4.08
46 | Cc1ccc(CN2CCC(Oc3ncnc4c3ccn4Cc3ccccc3)CC2)nc1 | 4.15
47 | Cc1ccnc(CN2CCC(Oc3ncnc4c3ccn4Cc3ccccc3)CC2)c1 | 4.15
48 | Cc1cccnc1CN1CCC(Oc2ncnc3c2ccn3Cc2ccccc2)CC1 | 4.15
49 | Fc1cccc(CN2CCC(Oc3ncnc4c3ccn4Cc3ccccc3)CC2)n1 | 3.83
50 | Fc1ccc(CN2CCC(Oc3ncnc4c3ccn4Cc3ccccc3)CC2)nc1 | 3.76
51 | Fc1cccnc1CN1CCC(Oc2ncnc3c2ccn3Cc2ccccc2)CC1 | 3.77
52 | c1ccc(Cn2ccc3c(OC4CCN(Cc5cnccn5)CC4)ncnc32)cc1 | 2.71
53 | Fc1ccccc1Cn1ccc2c(OC3CCN(Cc4ccccn4)CC3)ncnc21 | 3.75
54 | Fc1cccc(Cn2ccc3c(OC4CCN(Cc5ccccn5)CC4)ncnc32)c1F | 3.71
55 | Fc1c(Cl)cccc1Cn1ccc2c(OC3CCN(Cc4ccccn4)CC3)ncnc21 | 4.46
56 | Fc1c(Cn2ccc3c(OC4CCN(Cc5ccccn5)CC4)ncnc32)cccc1C(F)(F)F | 4.35

Test: Solubility in 0.01 N HCl
Assay type: physicochemical
Conditions: not given

Row | SMILES | solubility
57 | Cc1c(C)n(Cc2ccccc2)c2ncnc(OC3CCN(Cc4cscn4)CC3)c12 | > 200 µg/mL

Test: Solubility in simulated intestinal fluid
Assay type: physicochemical
Conditions: not given

Row | SMILES | solubility
58 | Cc1c(C)n(Cc2ccccc2)c2ncnc(OC3CCN(Cc4cscn4)CC3)c12 | 177 µg/mL (≈ 408 µM)

Test: Solubility in phosphate buffered saline
Assay type: physicochemical
Conditions: not given

Row | SMILES | solubility
59 | Cc1c(C)n(Cc2ccccc2)c2ncnc(OC3CCN(Cc4cscn4)CC3)c12 | 65 µg/mL (≈ 150 µM)
